Test systems include EKVX NSCLC; NCI-H522 lung; ACHN renal; BT-549 breast; SK-MEL-5 melanoma; SK-MEL-28 melanoma; HS 578T breast; MALME-3M melanoma.
What all share (test): DTP human tumour cell line panel, 48 h

Each structure is given as a SMILES string.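 Results reflect a 48-hour exposure of cells in 96-well plates to compound at five concentrations. GI50 is the concentration that inhibits growth by half. The concentration for full growth arrest is given as TGI.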 A value given as a limit tells only on which side of the number the result lay.

As usually defined, the GI50 is the concentration at which growth is held to half of that of the control. By TGI is commonly meant the concentration at which net growth stops. Read a low TGI as greater sensitivity of the cells. Regarding `COc1cccc(Nc2nc3ccccc3c3occc23)c1`, the GI50 is 14.3 µM in the experiment with EKVX NSCLC; 9.3 µM in the experiment on NCI-H522 lung; 10.8 µM in the experiment on ACHN renal; 10.4 µM in the experiment on BT-549 breast; 6.16 µM with SK-MEL-5 melanoma; 14.5 µM in the experiment on SK-MEL-28 melanoma. Also, the GI50 with HS 578T breast is 9.07 µM. The TGI in the experiment on EKVX NSCLC is 36.9 µM; in the experiment with NCI-H522 lung, 27 µM; with ACHN renal it was 33.6 µM; with BT-549 breast, 23 µM; in the experiment on SK-MEL-5 melanoma, 20.9 µM; with SK-MEL-28 melanoma, 29.9 µM. In the experiment with HS 578T breast, this molecule had a TGI of 29.7 µM.
Consider `CC1=CC(C)(C)NN1C1=NS(=O)(=O)c2ccccc2N1C`, for which the total growth inhibition concentration (TGI) in the experiment with EKVX NSCLC, in the experiment with NCI-H522 lung, in the experiment with ACHN renal, in the experiment on BT-549 breast, in the experiment on SK-MEL-5 melanoma and in the experiment with SK-MEL-28 melanoma was greater than 100 µM in each case. The molecule further returned a TGI with HS 578T breast greater than 100 µM.
Turning to `C/C=C1/CC(C)C(C)(O)C(=O)OCC2C(O)CN3CCC(OC1=O)C23` (centres undefined), the TGI in the experiment on EKVX NSCLC, in the experiment with NCI-H522 lung, with ACHN renal, in the experiment on BT-549 breast, in the experiment with SK-MEL-5 melanoma and in the experiment on HS 578T breast was greater than 100 µM each time.
For `O=C1O/C(=C/c2ccccc2)C(c2ccccc2)=C1O`, the TGI in the experiment with EKVX NSCLC is greater than 100 µM; in the experiment with NCI-H522 lung it was greater than 100 µM; with ACHN renal, greater than 100 µM; in the experiment on MALME-3M melanoma, greater than 100 µM; in the experiment with SK-MEL-5 melanoma, 80.9 µM; with SK-MEL-28 melanoma, greater than 100 µM.
For `CCN(CC)CCCC(C)N/C(=C1\C(=O)NC(=O)\C1=C(/NC(C)CCCN(CC)CC)c1cccc(OC)c1)c1cccc(OC)c1` (centres undefined), the GI50 in the experiment with NCI-H522 lung is 0.755 µM; in the experiment on ACHN renal, 0.393 µM; in the experiment with BT-549 breast it was 1.31 µM; in the experiment with MALME-3M melanoma, 0.85 µM; in the experiment on SK-MEL-5 melanoma, 0.836 µM; in the experiment on SK-MEL-28 melanoma, 0.913 µM. In addition, in the experiment on HS 578T breast, the GI50 was 1.11 µM. Further, the total growth inhibition concentration (TGI) stood at 1.69 µM in the experiment on NCI-H522 lung; 2.16 µM in the experiment on ACHN renal; 3.82 µM in the experiment on BT-549 breast; 1.63 µM in the experiment with MALME-3M melanoma; 1.54 µM in the experiment on SK-MEL-5 melanoma; 1.67 µM in the experiment with SK-MEL-28 melanoma. In the experiment with HS 578T breast, this molecule came in with a TGI of 3.22 µM.
Regarding `N#Cc1cnc(Nc2cc(NC[C@H]3CNCCO3)c(C(F)(F)F)cn2)cn1`, the GI50 was 17.5 µM with EKVX NSCLC; 13.1 µM in the experiment on NCI-H522 lung; 5.62 µM in the experiment with BT-549 breast; 10.4 µM with MALME-3M melanoma; 9.3 µM in the experiment on SK-MEL-5 melanoma; 16.3 µM in the experiment with SK-MEL-28 melanoma. Further, the GI50 with HS 578T breast is 0.882 µM. Moreover, the concentration for total growth inhibition (TGI) amounted to 59.4 µM with EKVX NSCLC; 34.9 µM with NCI-H522 lung; 32 µM with BT-549 breast; 27.8 µM in the experiment on MALME-3M melanoma; 21.6 µM in the experiment with SK-MEL-5 melanoma; 46.5 µM in the experiment with SK-MEL-28 melanoma. This molecule also displayed a total growth inhibition concentration (TGI) in the experiment with HS 578T breast of 60.3 µM.
Turning to `Cc1cc(C)c(-c2c(N)cc(Br)cc2Br)c(N)c1`, the GI50 is 5.15 µM with EKVX NSCLC; 4.85 µM in the experiment on NCI-H522 lung; 10 µM with ACHN renal; 5.76 µM in the experiment with BT-549 breast; 5.09 µM with MALME-3M melanoma; 3.82 µM in the experiment on SK-MEL-5 melanoma. Also, the GI50 with SK-MEL-28 melanoma was 6.25 µM. For the same molecule, the concentration for total growth inhibition (TGI) was found to be 26.3 µM with EKVX NSCLC; 19.1 µM in the experiment with NCI-H522 lung; 22.8 µM with ACHN renal; 18.2 µM with BT-549 breast; 20.3 µM in the experiment with MALME-3M melanoma; 13.9 µM in the experiment with SK-MEL-5 melanoma. In addition, the concentration for total growth inhibition (TGI) with SK-MEL-28 melanoma is 21 µM.
Take `CN1CCN(Cc2ccc(NC(=O)c3cncc(C#Cc4cnc(N)c5cccnc45)c3)cc2C(F)(F)F)CC1`: the GI50 is 1.36 µM in the experiment on EKVX NSCLC; 0.29 µM in the experiment with NCI-H522 lung; 1.48 µM in the experiment with BT-549 breast; 0.0558 µM in the experiment on MALME-3M melanoma; 0.571 µM in the experiment on SK-MEL-5 melanoma; 0.176 µM in the experiment on SK-MEL-28 melanoma. In addition, the GI50 with HS 578T breast was 0.196 µM. Besides, the TGI is greater than 50 µM with EKVX NSCLC; greater than 50 µM in the experiment with NCI-H522 lung; greater than 50 µM with BT-549 breast; 0.273 µM with MALME-3M melanoma; 2.13 µM in the experiment with SK-MEL-5 melanoma; 1.85 µM in the experiment on SK-MEL-28 melanoma. The TGI in the experiment with HS 578T breast is 1.61 µM.
On to `COc1ccc(/C=C2/SC(Nc3nc(-c4nc(NC5=NC(=O)/C(=C\c6ccc(OC)cc6)S5)sc4C)c(C)s3)=NC2=O)cc1`, for which the concentration for 50% growth inhibition (GI50) in the experiment on EKVX NSCLC is 0.213 µM; with NCI-H522 lung, 2.14 µM; in the experiment with ACHN renal it was 0.838 µM; in the experiment on BT-549 breast, 2.23 µM; with SK-MEL-5 melanoma, 0.282 µM; in the experiment on HS 578T breast it was 0.288 µM. The TGI is 2.43 µM in the experiment with EKVX NSCLC; greater than 25.9 µM in the experiment on NCI-H522 lung; 9.74 µM in the experiment with ACHN renal; 22.2 µM in the experiment on BT-549 breast; 3.93 µM in the experiment with SK-MEL-5 melanoma; 1.61 µM in the experiment on HS 578T breast.
As for `CCOC(=O)C(C#N)C1=CC(=O)C(=O)c2ccc(O)cc21` (centres undefined), the concentration for total growth inhibition (TGI) in the experiment with EKVX NSCLC, in the experiment on NCI-H522 lung, in the experiment with ACHN renal, in the experiment with MALME-3M melanoma, in the experiment on SK-MEL-5 melanoma and in the experiment on SK-MEL-28 melanoma was greater than 100 µM in each case. The molecule further had a TGI in the experiment on HS 578T breast greater than 100 µM.
Take `c1ccc(CNCCN(CCNCc2ccccn2)Cc2ccc3ccccc3c2)nc1`: the GI50 in the experiment on EKVX NSCLC is 1.71 µM; in the experiment on ACHN renal it was 1.05 µM; in the experiment on BT-549 breast it was 2.87 µM; in the experiment on MALME-3M melanoma it was 1.65 µM; with SK-MEL-5 melanoma, 1.76 µM; in the experiment with SK-MEL-28 melanoma, 1.75 µM. Also, the TGI is 7.58 µM in the experiment with EKVX NSCLC; 2.43 µM in the experiment with ACHN renal; 10.9 µM with BT-549 breast; 3.63 µM with MALME-3M melanoma; 3.16 µM with SK-MEL-5 melanoma; 3.36 µM in the experiment with SK-MEL-28 melanoma.
Turning to `O=C1c2ccccc2-c2c1c1ccccc1c(=O)n2CCCNCCn1c2c(c3ccccc3c1=O)C(=O)c1ccccc1-2`, the GI50 in the experiment with EKVX NSCLC is 12.5 µM; in the experiment with NCI-H522 lung, 14.6 µM; in the experiment with ACHN renal, 12.3 µM; with BT-549 breast, 10.8 µM; in the experiment with MALME-3M melanoma, 22.1 µM; with SK-MEL-28 melanoma, 16 µM. In addition, in the experiment on HS 578T breast, the GI50 was 16.5 µM. Besides, the total growth inhibition concentration (TGI) in the experiment on EKVX NSCLC was 27.2 µM; with NCI-H522 lung, 48.1 µM; with ACHN renal, 24.8 µM; in the experiment on BT-549 breast, 28.6 µM; with MALME-3M melanoma, 40.3 µM; with SK-MEL-28 melanoma, 38 µM. Also, in the experiment on HS 578T breast, the concentration for total growth inhibition (TGI) came to 64.6 µM.

The record behind these values is PubChem BioAssay (NCI).
